# Assays:
# [1] = test system: p-rpS6 in human dermal fibroblasts (HDFs); assay: in vitro scratch assay, p-rpS6-positive cells (immunofluorescence); type: cell-based; details: HDFs in basal medium; pre-treatment 10 to 30 min prior to scratch with 20 nM rapamycin or 10 μM U0126; fixed 30 min after scratch; vs DMSO
# Protocol: (§1) To model a skin wound in vitro, cell cultures were subjected to a damage assay to monitor cellular response mechanisms. Commercially available human dermal fibroblasts (HDFs) were cultured in HDF medium (DMEM/F12 (Sigma Aldrich), 10% fetal bovine serum (Sigma Aldrich) and 4 mM L-Glutamine (Gibco)), subcultivated at 90% confluency and used for experiments below passage 15. Immortalised human keratinocytes (HaCaT) were maintained in HACAT medium (DMEM high glucose (Sigma Aldrich), 10% fetal bovine serum (Sigma Aldrich) and 2 mM L-Glutamine (Gibco) and subcultivated at 60% confluency. All cell culture experiments were performed in a humidified incubator at 37° C. and 5% CO2. […]
# (§2) For immunofluorescence staining, the coverslips containing damaged and control cells were permeabilized using 0.5% Triton X100 for 5 min, washed three times with PBS for 5 min each, and blocked using PBS with 5% goat serum (VECS-1000, Vector Laboratories) for 1 h. […] For quantification of rpS6 and Erk phosphorylation, ten images per slide were taken along the scratch using an inverted microscope Nikon (Nikon Corporation, Tokyo, Japan) with set exposure times. These images were processed and quantified for total cell count and activated cell count (p-rpS6 or p-ERK positive cells) using set thresholds and particle analysis in Fiji. […]
# [2] = test system: p-Erk in human dermal fibroblasts (HDFs); assay: in vitro scratch assay, p-Erk-positive cells (immunofluorescence); type: cell-based; details: HDFs in basal medium; pre-treatment 10 to 30 min prior to scratch with 20 nM rapamycin or 10 μM U0126; fixed 30 min after scratch; vs DMSO
# Protocol: as §1, §2
structure (smiles),measurement,setting,value
N#CC(=C(/N)Sc1ccccc1N)/C(C#N)=C(\N)Sc1ccccc1N [U0126],effect on p-rpS6 induction (number of cells positive for p-rpS6) in the scratch assay,[1],no significant effect on rpS6 phosphorylation
same,effect on Erk phosphorylation (number of cells positive for p-Erk) in the scratch assay,[2],almost completely abrogating p-Erk-positive cells

# From patent publication US20260259222A1, “METHOD OF DIAGNOSING WOUNDS” (TRAUMA CARE CONSULT TRAUMATOLOGISCHE FORSCHUNG …, priority 2022, published 2026)
